Experimental data: ChEMBL document CHEMBL3885881, “DrugMatrix”

Organism: Rattus norvegicus
Assay: DrugMatrix - Regimen: Daily Repeat
Type: toxicity, organism-based, Sprague-Dawley
Design: regimen Daily Repeat, gender Male, age 6-8 weeks
Settings: in vivo, po, route oral GAVAGE, vehicle 100 % SALINE; for ABSOLUTE BASOPHIL / ABSOLUTE EOSINOPHIL / ABSOLUTE LYMPHOCYTE / ABSOLUTE MONOCYTE / ABSOLUTE SEGMENTED NEUTROPHIL / BASOPHIL / EOSINOPHIL / ERYTHROCYTE COUNT / HEMATOCRIT / HEMOGLOBIN / LEUKOCYTE COUNT / LYMPHOCYTE / MEAN CORPUSCULAR HEMOGLOBIN / MEAN CORPUSCULAR HEMOGLOBIN CONCENTRATION / MEAN CORPUSCULAR VOLUME / MONOCYTE / NEUTROPHIL / NUCLEATED RED BLOOD CELLS / PLATELET COUNT: tissue Blood; for ALANINE AMINOTRANSFERASE / ALBUMIN / ALKALINE PHOSPHATASE / ASPARTATE AMINOTRANSFERASE / BLOOD UREA NITROGEN / CARBON DIOXIDE / CHLORIDE / CHOLESTEROL / CREATINE PHOSPHOKINASE / CREATININE / GLUCOSE / LACTATE DEHYDROGENASE / LIPASE / PHOSPHORUS / POTASSIUM / SODIUM / TOTAL BILIRUBIN / TOTAL PROTEIN / URIC ACID: tissue Plasma
[1] = 0 mg/kg, 72 h, dose level Control, time 3 day
[2] = 0 mg/kg, 120 h, dose level Control, time 5 day
[3] = 1200 mg/kg, 72 h, dose level High, time 3 day
[4] = 1200 mg/kg, 120 h, dose level High, time 5 day

## CC(=O)OCC(CCn1cnc2cnc(N)nc21)COC(C)=O [FAMCICLOVIR]
[1]
  ABSOLUTE BASOPHIL: 0 CELLS/uL
  ABSOLUTE EOSINOPHIL: 37 CELLS/uL
  ABSOLUTE LYMPHOCYTE: 12359.33 CELLS/uL
  ABSOLUTE MONOCYTE: 122.67 CELLS/uL
  ABSOLUTE SEGMENTED NEUTROPHIL: 847.67 CELLS/uL
  BASOPHIL: 0%
  EOSINOPHIL: 0.33%
  ERYTHROCYTE COUNT: 5.75 x10E6/uL
  HEMATOCRIT: 36.08%
  HEMOGLOBIN: 14.07 G/DL
  LEUKOCYTE COUNT: 13.37 x10E3/uL
  LYMPHOCYTE: 92.5%
  MEAN CORPUSCULAR HEMOGLOBIN: 24.47 pg
  MEAN CORPUSCULAR HEMOGLOBIN CONCENTRATION: 38.98 G/DL
  MEAN CORPUSCULAR VOLUME: 62.78 fL
  MONOCYTE: 1%
  NEUTROPHIL: 6.17%
  NUCLEATED RED BLOOD CELLS: 0.17 /100WBC
  PLATELET COUNT: 1202.17 x10E3/uL
  ALANINE AMINOTRANSFERASE: 50.67 u/L
  ALBUMIN: 4.13 G/DL
  ALKALINE PHOSPHATASE: 356.33 u/L
  ASPARTATE AMINOTRANSFERASE: 78.17 u/L
  BLOOD UREA NITROGEN: 14.17 mg/dL
  CARBON DIOXIDE: 31.33 mmol/L
  CHLORIDE: 98.5 MEQ/L
  CHOLESTEROL: 76.5 mg/dL
  CREATINE PHOSPHOKINASE: 248.33 u/L
  CREATININE: 0.2 mg/dL
  GLUCOSE: 144 mg/dL
  LACTATE DEHYDROGENASE: 107 u/L
  LIPASE: 9.83 u/L
  PHOSPHORUS: 12.8 mg/dL
  POTASSIUM: 6.75 MEQ/L
  SODIUM: 142 MEQ/L
  TOTAL BILIRUBIN: 0.18 mg/dL
  TOTAL PROTEIN: 5.98 G/DL
  URIC ACID: 1.42 mg/dL
[2]
  ABSOLUTE BASOPHIL: 0 CELLS/uL
  ABSOLUTE EOSINOPHIL: 0 CELLS/uL
  ABSOLUTE LYMPHOCYTE: 8681.17 CELLS/uL
  ABSOLUTE MONOCYTE: 79.83 CELLS/uL
  ABSOLUTE SEGMENTED NEUTROPHIL: 689 CELLS/uL
  BASOPHIL: 0%
  EOSINOPHIL: 0%
  ERYTHROCYTE COUNT: 5.49 x10E6/uL
  HEMATOCRIT: 33.55%
  HEMOGLOBIN: 13.1 G/DL
  LEUKOCYTE COUNT: 9.45 x10E3/uL
  LYMPHOCYTE: 92.33%
  MEAN CORPUSCULAR HEMOGLOBIN: 23.92 pg
  MEAN CORPUSCULAR HEMOGLOBIN CONCENTRATION: 39.07 G/DL
  MEAN CORPUSCULAR VOLUME: 61.22 fL
  MONOCYTE: 0.67%
  NEUTROPHIL: 7%
  NUCLEATED RED BLOOD CELLS: 0.17 /100WBC
  PLATELET COUNT: 1001.17 x10E3/uL
  ALANINE AMINOTRANSFERASE: 49.33 u/L
  ALBUMIN: 4.07 G/DL
  ALKALINE PHOSPHATASE: 300.33 u/L
  ASPARTATE AMINOTRANSFERASE: 83.5 u/L
  BLOOD UREA NITROGEN: 16 mg/dL
  CARBON DIOXIDE: 29.67 mmol/L
  CHLORIDE: 100.5 MEQ/L
  CHOLESTEROL: 74.33 mg/dL
  CREATINE PHOSPHOKINASE: 489.67 u/L
  CREATININE: 0.35 mg/dL
  GLUCOSE: 151 mg/dL
  LACTATE DEHYDROGENASE: 133.67 u/L
  LIPASE: 11.17 u/L
  PHOSPHORUS: 10.88 mg/dL
  POTASSIUM: 5.5 MEQ/L
  SODIUM: 145.7 MEQ/L
  TOTAL BILIRUBIN: 0.2 mg/dL
  TOTAL PROTEIN: 6.05 G/DL
  URIC ACID: 0.68 mg/dL
[3]
  ABSOLUTE BASOPHIL: 0 CELLS/uL
  ABSOLUTE EOSINOPHIL: 0 CELLS/uL
  ABSOLUTE LYMPHOCYTE: 7020.67 CELLS/uL
  ABSOLUTE MONOCYTE: 111 CELLS/uL
  ABSOLUTE SEGMENTED NEUTROPHIL: 835 CELLS/uL
  BASOPHIL: 0%
  EOSINOPHIL: 0%
  ERYTHROCYTE COUNT: 5.23 x10E6/uL
  HEMATOCRIT: 33.07%
  HEMOGLOBIN: 13.03 G/DL
  LEUKOCYTE COUNT: 7.97 x10E3/uL
  LYMPHOCYTE: 88%
  MEAN CORPUSCULAR HEMOGLOBIN: 24.97 pg
  MEAN CORPUSCULAR HEMOGLOBIN CONCENTRATION: 39.4 G/DL
  MEAN CORPUSCULAR VOLUME: 63.33 fL
  MONOCYTE: 1.33%
  NEUTROPHIL: 10.67%
  NUCLEATED RED BLOOD CELLS: 0 /100WBC
  PLATELET COUNT: 1079.67 x10E3/uL
  ALANINE AMINOTRANSFERASE: 49 u/L
  ALBUMIN: 4.07 G/DL
  ALKALINE PHOSPHATASE: 334 u/L
  ASPARTATE AMINOTRANSFERASE: 80.33 u/L
  BLOOD UREA NITROGEN: 14.33 mg/dL
  CARBON DIOXIDE: 29.33 mmol/L
  CHLORIDE: 100.67 MEQ/L
  CHOLESTEROL: 77.33 mg/dL
  CREATINE PHOSPHOKINASE: 294 u/L
  CREATININE: 0.2 mg/dL
  GLUCOSE: 160 mg/dL
  LACTATE DEHYDROGENASE: 118.67 u/L
  LIPASE: 10 u/L
  PHOSPHORUS: 11.4 mg/dL
  POTASSIUM: 5.59 MEQ/L
  SODIUM: 144.23 MEQ/L
  TOTAL BILIRUBIN: 0.17 mg/dL
  TOTAL PROTEIN: 5.83 G/DL
  URIC ACID: 0.93 mg/dL
[4]
  ABSOLUTE BASOPHIL: 0 CELLS/uL
  ABSOLUTE EOSINOPHIL: 0 CELLS/uL
  ABSOLUTE LYMPHOCYTE: 9833.67 CELLS/uL
  ABSOLUTE MONOCYTE: 110.67 CELLS/uL
  ABSOLUTE SEGMENTED NEUTROPHIL: 822.33 CELLS/uL
  BASOPHIL: 0%
  EOSINOPHIL: 0%
  ERYTHROCYTE COUNT: 5.64 x10E6/uL
  HEMATOCRIT: 35.27%
  HEMOGLOBIN: 13.9 G/DL
  LEUKOCYTE COUNT: 10.77 x10E3/uL
  LYMPHOCYTE: 91.33%
  MEAN CORPUSCULAR HEMOGLOBIN: 24.73 pg
  MEAN CORPUSCULAR HEMOGLOBIN CONCENTRATION: 39.43 G/DL
  MEAN CORPUSCULAR VOLUME: 62.77 fL
  MONOCYTE: 1%
  NEUTROPHIL: 7.67%
  NUCLEATED RED BLOOD CELLS: 0.33 /100WBC
  PLATELET COUNT: 1147.67 x10E3/uL
  ALANINE AMINOTRANSFERASE: 54 u/L
  ALBUMIN: 4.03 G/DL
  ALKALINE PHOSPHATASE: 380.67 u/L
  ASPARTATE AMINOTRANSFERASE: 82.33 u/L
  BLOOD UREA NITROGEN: 13 mg/dL
  CARBON DIOXIDE: 29.67 mmol/L
  CHLORIDE: 100.67 MEQ/L
  CHOLESTEROL: 75.67 mg/dL
  CREATINE PHOSPHOKINASE: 286 u/L
  CREATININE: 0.31 mg/dL
  GLUCOSE: 147.33 mg/dL
  LACTATE DEHYDROGENASE: 106 u/L
  LIPASE: 9.33 u/L
  PHOSPHORUS: 11.2 mg/dL
  POTASSIUM: 5.79 MEQ/L
  SODIUM: 145.73 MEQ/L
  TOTAL BILIRUBIN: 0.17 mg/dL
  TOTAL PROTEIN: 5.77 G/DL
  URIC ACID: 0.73 mg/dL
